Experimental data: ChEMBL document CHEMBL4732174, “Discovery of 6-(7-Nitro-2,1,3-benzoxadiazol-4-ylthio)hexanol Derivatives as Glutathione Transferase Inhibitors with Favorable Selectivity and Tolerated Toxicity” (J Med Chem, 2021)
Converted amounts (≈) assume the structure as drawn.

Columns and labels:
[1] = MRT (0 to infinity) in Sprague-Dawley rat at 80 mg/kg, po administered as single dose measured upto 48 hrs by LC-MS/MS analysis; conditions: in vivo
[2] = Toxicity in BALB/c nude mouse xenografted with human 143B cells assessed as body weight loss at 5 mg/kg, po administered once daily for 28 consecutive days and measured every 3 days; format: organism-based; conditions: in vivo, 672 h, time 28 day
[3] = MRT (0 to t) in Sprague-Dawley rat at 80 mg/kg, po administered as single dose measured upto 48 hrs by LC-MS/MS analysis; conditions: in vivo
[4] = Toxicity in BALB/c nude mouse xenografted with human 143B cells assessed as cellular inflammation in spleen at 5 to 20 mg/kg, po administered once daily for 28 consecutive days by hematoxylin-eosin staining based assay; format: organism-based; conditions: in vivo, 672 h, dose 5-20 mg/kg, time 28 day
143B [5] = test: Induction of apoptosis in human 143B cells assessed as apoptotic cells at 10 uM incubated for 24 hrs by Annexin V-FITC/PI double staining based flow cytometric analysis (reference value: 3.9%); format: functional
[6] = biological target: T1, Glutathione S-transferase P (Homo sapiens, UniProt P09211); conditions: dose 0.1-5 µM
Target sequence in this assay (P09211 2-210 limits assumed): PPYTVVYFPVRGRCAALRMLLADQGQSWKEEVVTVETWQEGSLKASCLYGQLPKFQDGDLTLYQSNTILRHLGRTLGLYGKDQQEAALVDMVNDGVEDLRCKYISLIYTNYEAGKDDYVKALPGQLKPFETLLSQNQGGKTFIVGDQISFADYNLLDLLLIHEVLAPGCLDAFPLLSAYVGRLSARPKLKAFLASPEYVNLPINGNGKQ

[7] = Toxicity in BALB/c nude mouse xenografted with human 143B cells assessed as spleen edema at 5 to 20 mg/kg, po administered once daily for 28 consecutive days by hematoxylin-eosin staining based assay; format: organism-based; conditions: in vivo, 672 h, dose 5-20 mg/kg, time 28 day
in vivo [8] = conditions: Sprague-Dawley, rat, po, 80 mg/kg
Description: Terminal half life in Sprague-Dawley rat at 80 mg/kg, po administered as single dose measured upto 48 hrs by LC-MS/MS analysis

[9] = Toxicity in BALB/c nude mouse xenografted with human 143B cells assessed as kidney edema at 5 to 20 mg/kg, po administered once daily for 28 consecutive days by hematoxylin-eosin staining based assay; format: organism-based; conditions: in vivo, 672 h, dose 5-20 mg/kg, time 28 day
in vivo [10] = conditions: Sprague-Dawley, rat, po, 80 mg/kg; remark: listed apart in the source
Description: Cmax in Sprague-Dawley rat at 80 mg/kg, po administered as single dose measured upto 48 hrs by LC-MS/MS analysis

[11] = Water solubility of the compound measured by UV-Visible spectral analysis; format: physicochemical; conditions: water; read-out: solubility
[12] = Toxicity in BALB/c nude mouse xenografted with human 143B cells assessed as heart edema at 5 to 20 mg/kg, po administered once daily for 28 consecutive days by hematoxylin-eosin staining based assay; format: organism-based; conditions: in vivo, 672 h, dose 5-20 mg/kg, time 28 day
[13] = Antiproliferative activity against […] B16 cells assessed as inhibition of cell proliferation incubated for 72 hrs by MTT assay; format: functional, cell-based; conditions: B16, 72 h
143B [14] = test: Induction of apoptosis in human 143B cells assessed as apoptotic cells at 2.5 uM incubated for 24 hrs by Annexin V-FITC/PI double staining based flow cytometric analysis (reference value: 3.9%); format: functional
143B [15] = test: Antiproliferative activity against human 143B cells assessed as inhibition of cell proliferation incubated for 72 hrs by MTT assay; format: functional, cell-based
in vivo [16] = conditions: Sprague-Dawley, rat, po, 80 mg/kg; remark: listed apart in the source
Description: Tmax in Sprague-Dawley rat at 80 mg/kg, po administered as single dose measured upto 48 hrs by LC-MS/MS analysis

[17] = Toxicity in BALB/c nude mouse xenografted with human 143B cells assessed as body weight loss at 20 mg/kg, po administered once daily for 28 consecutive days and measured every 3 days; format: organism-based; conditions: in vivo, 672 h, time 28 day
[18] = Toxicity in BALB/c nude mouse xenografted with human 143B cells assessed as liver edema at 5 to 20 mg/kg, po administered once daily for 28 consecutive days by hematoxylin-eosin staining based assay; format: organism-based; conditions: in vivo, 672 h, dose 5-20 mg/kg, time 28 day
HOS = test: Antiproliferative activity against human HOS cells assessed as inhibition of cell proliferation incubated for 72 hrs by MTT assay; format: functional, cell-based
143B [19] = test: Induction of apoptosis in human 143B cells assessed as apoptotic cells at 5 uM incubated for 24 hrs by Annexin V-FITC/PI double staining based flow cytometric analysis (reference value: 3.9%); format: functional
143B [20] = test: Induction of cell cycle arrest in human 143B cells assessed as accumulation at G1 phase at 10 uM incubated for 48 hrs by propidium iodide staining based flow cytometry (reference value: 66.62 %); format: functional
[21] = biological target: T1, Glutathione S-transferase P; test: Time dependent inhibition of GSTP1-1 (unknown origin) assessed as inhibition constant using reduced GSH and CDNB as substrate by spectrophotometric method
Target sequence in this assay (P09211 whole entry): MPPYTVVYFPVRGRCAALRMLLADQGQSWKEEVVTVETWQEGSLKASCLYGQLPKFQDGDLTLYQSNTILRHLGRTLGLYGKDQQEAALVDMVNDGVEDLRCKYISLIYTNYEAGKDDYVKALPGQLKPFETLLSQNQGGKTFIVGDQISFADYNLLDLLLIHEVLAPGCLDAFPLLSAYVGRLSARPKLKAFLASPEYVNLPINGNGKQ

[22] = biological target: T1, Glutathione S-transferase P; test: Inhibition of GSTP1-1 (unknown origin) using reduced GSH and CDNB as substrate incubated for 10 mins followed by substrate addition by microplate reader analysis
Target sequence in this assay (P09211 whole entry): as above

A549 = test: Antiproliferative activity against human A549 cells assessed as inhibition of cell proliferation incubated for 72 hrs by MTT assay; format: functional, cell-based; conditions: A549, 72 h
143B [23] = test: Induction of cell cycle arrest in human 143B cells assessed as accumulation at G2 phase at 10 uM incubated for 48 hrs by propidium iodide staining based flow cytometry (reference value: 1.35 %); format: functional
[24] = Toxicity in BALB/c nude mouse xenografted with human 143B cells assessed as necrosis in spleen at 5 to 20 mg/kg, po administered once daily for 28 consecutive days by hematoxylin-eosin staining based assay; format: organism-based; conditions: in vivo, 672 h, dose 5-20 mg/kg, time 28 day
[25] = Toxicity in BALB/c nude mouse xenografted with human 143B cells assessed as necrosis in lung at 5 to 20 mg/kg, po administered once daily for 28 consecutive days by hematoxylin-eosin staining based assay; format: organism-based; conditions: in vivo, 672 h, dose 5-20 mg/kg, time 28 day
[26] = Toxicity in BALB/c nude mouse xenografted with human 143B cells assessed as necrosis in liver at 5 to 20 mg/kg, po administered once daily for 28 consecutive days by hematoxylin-eosin staining based assay; format: organism-based; conditions: in vivo, 672 h, dose 5-20 mg/kg, time 28 day
143B [27] = test: Antitumor activity against human 143B cells xenografted in BALB/c nude mouse assessed as tumor growth inhibition at 5 mg/kg, po administered once daily for 28 consecutive days relative to control; format: functional; conditions: 672 h, time 28 day, read-out: TGI
[28] = Toxicity in BALB/c nude mouse xenografted with human 143B cells assessed as cellular inflammation in liver at 5 to 20 mg/kg, po administered once daily for 28 consecutive days by hematoxylin-eosin staining based assay; format: organism-based; conditions: in vivo, 672 h, dose 5-20 mg/kg, time 28 day
[29] = Toxicity in BALB/c nude mouse xenografted with human 143B cells assessed as lung edema at 5 to 20 mg/kg, po administered once daily for 28 consecutive days by hematoxylin-eosin staining based assay; format: organism-based; conditions: in vivo, 672 h, dose 5-20 mg/kg, time 28 day
[30] = biological target: T2, Glutathione S-transferase Mu 2 (Homo sapiens, UniProt P28161); test: Inhibition of GSTM2-2 (unknown origin) using reduced GSH and CDNB as substrate incubated for 10 mins followed by substrate addition by microplate reader analysis
T2 sequence (P28161 whole entry): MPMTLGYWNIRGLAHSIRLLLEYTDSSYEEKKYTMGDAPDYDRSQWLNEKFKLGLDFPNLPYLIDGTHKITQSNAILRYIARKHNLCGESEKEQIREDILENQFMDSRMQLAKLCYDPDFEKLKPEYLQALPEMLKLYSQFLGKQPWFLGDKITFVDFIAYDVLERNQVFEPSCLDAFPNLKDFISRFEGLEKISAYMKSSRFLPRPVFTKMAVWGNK

143B [31] = test: Antitumor activity against human 143B cells xenografted in BALB/c nude mouse assessed as tumor growth inhibition at 20 mg/kg, po administered once daily for 28 consecutive days relative to control; format: functional; conditions: 672 h, time 28 day, read-out: TGI
[32] = Toxicity in BALB/c nude mouse xenografted with human 143B cells assessed as necrosis in kidney at 5 to 20 mg/kg, po administered once daily for 28 consecutive days by hematoxylin-eosin staining based assay; format: organism-based; conditions: in vivo, 672 h, dose 5-20 mg/kg, time 28 day

CN(C)CCCNC(=O)CCC(=O)OCCCCCCSc1ccc([N+](=O)[O-])c2nonc12
MRT inf at 48 h [1]: 6.54 h
Activity [2]: Non-Toxic
MRT last at 48 h [3]: 6.35 h
Activity [4]: Non-Toxic
Activity (143B [5]): 84%
Kinact [6]: 0.17 min⁻¹
Activity [7]: Non-Toxic
half-life at 48 h (in vivo [8]): 7.28 h
Activity [9]: Non-Toxic
Cmax at 48 h (in vivo [10]): 1810 ng/mL
solubility [11]: 9000 µg/mL (≈ 18.7 mM)
Activity [12]: Non-Toxic
IC50 [13]: 950 nM
Activity (143B [14]): 46.5%
IC50 (143B [15]): 1180 nM
Tmax at 48 h (in vivo [16]): 2.33 h
Activity [17]: Non-Toxic
Activity [18]: Non-Toxic
IC50 (HOS): 1850 nM
Activity (143B [19]): 74%
Activity (143B [20]): 48.67%
Ki [21]: 170 nM
IC50 [22]: 160 nM
IC50 (A549): 1580 nM
Activity (143B [23]): 21.01%
Activity [24]: Non-Toxic
Activity [25]: Non-Toxic
Activity [26]: Non-Toxic
inhibition in vivo at 5 mg/kg (143B [27]): 46.4%
Activity [28]: Non-Toxic
Activity [29]: Non-Toxic
IC50 [30]: 90 nM
inhibition in vivo at 20 mg/kg (143B [31]): 74.5%
Activity [32]: Non-Toxic
